What was measured:
[1] = target: T1, P. falciparum proteasome, β1 activity (20S CP / 26S) (Plasmodium falciparum, UniProt Q8I0U7); assay: Ac-nLPnLD-AMC cleavage in lysate of treated trophozoites; format: cell-based; details: intact parasites treated 3 h with 50 or 700 nM, then lysed; direct action on the proteasome not shown; non-specific alkylator; pH 7.5, 37 °C
T1 construct: gene PF3D7_0931800; native proteasome in NP-40 lysate of 26-30 hpi trophozoites; with Proteasome subunit beta type-7 (beta2 subunit); Proteasome subunit beta type-5

[2] = target: T2, P. falciparum proteasome, β2 activity (20S CP / 26S) (Plasmodium falciparum, UniProt Q8I6T3); assay: Ac-RLR-AMC cleavage in lysate of treated trophozoites; format: cell-based; details: intact parasites treated 3 h with 50 or 700 nM, then lysed; direct action on the proteasome not shown; non-specific alkylator; pH 7.5, 37 °C
T2 construct: gene PF3D7_1328100; native proteasome in NP-40 lysate of 26-30 hpi trophozoites; with Proteasome subunit beta type-5; Proteasome subunit beta type-6 (beta1 subunit)

[3] = target: T3, P. falciparum proteasome, β5 activity (20S CP / 26S) (Plasmodium falciparum, UniProt Q8IJT1); assay: Suc-LLVY-AMC cleavage in lysate of treated trophozoites; format: cell-based; details: intact parasites treated 3 h with 50 or 700 nM, then lysed; direct action on the proteasome not shown; non-specific alkylator; pH 7.5, 37 °C
T3 construct: gene PF3D7_1011400; native proteasome in NP-40 lysate of 26-30 hpi trophozoites; with Proteasome subunit beta type-7 (beta2 subunit); Proteasome subunit beta type-6 (beta1 subunit)

[4] = target: T3, P. falciparum proteasome, β5 activity (20S CP / 26S); assay: as above; format: cell-based
[5] = test system: T4, P. falciparum proteasome, β5 activity (20S CP / 26S); details: intact Kelch13 C580Y parasites treated 3 h, then lysed; direct action on the proteasome not shown; 6 µM substrate, pH 7.5, 37 °C; mutation in the neighbouring β2 subunit, β5 wild type
T4 construct: gene beta5

T3 sequence (Q8IJT1 entry or part of it): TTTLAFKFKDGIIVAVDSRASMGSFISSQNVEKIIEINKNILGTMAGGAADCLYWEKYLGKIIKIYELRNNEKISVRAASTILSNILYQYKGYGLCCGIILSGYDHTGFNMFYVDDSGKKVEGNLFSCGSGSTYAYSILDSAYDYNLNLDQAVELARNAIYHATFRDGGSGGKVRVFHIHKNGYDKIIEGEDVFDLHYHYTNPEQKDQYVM
T2 sequence (Q8I6T3 entry or part of it): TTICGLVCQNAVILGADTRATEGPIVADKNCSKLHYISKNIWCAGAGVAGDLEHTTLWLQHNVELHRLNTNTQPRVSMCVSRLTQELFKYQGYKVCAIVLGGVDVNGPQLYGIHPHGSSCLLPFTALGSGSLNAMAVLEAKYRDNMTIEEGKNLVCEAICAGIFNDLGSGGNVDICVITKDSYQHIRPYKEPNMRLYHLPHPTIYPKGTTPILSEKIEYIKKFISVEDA
T1 sequence (Q8I0U7 entry or part of it): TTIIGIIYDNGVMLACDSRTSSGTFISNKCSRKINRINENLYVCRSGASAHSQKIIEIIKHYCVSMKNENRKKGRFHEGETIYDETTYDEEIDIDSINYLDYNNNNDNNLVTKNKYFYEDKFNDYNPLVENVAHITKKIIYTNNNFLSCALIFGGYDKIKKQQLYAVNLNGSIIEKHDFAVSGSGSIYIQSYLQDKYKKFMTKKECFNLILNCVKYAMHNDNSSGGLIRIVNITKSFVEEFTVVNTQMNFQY

In the case of C[C@@H]1CC[C@H]2[C@@H](C)C(O)O[C@@H]3O[C@@]4(C)CC[C@@H]1[C@]32OO4 (some centres unmarked) [DHA], the “% activity” value [1] is reported as “DHA inhibited all three catalytic subunits of proteasomes derived from Kelch13^WT”, the “% activity” value [2] is reported as “DHA inhibited all three catalytic subunits of proteasomes derived from Kelch13^WT” and the “% activity” value [3] is reported as “DHA inhibited all three catalytic subunits of proteasomes derived from Kelch13^WT”.
In the case of c1cc(C2CCC3(CC2)OOC2(O3)C3CC4CC(C3)CC2C4)ccc1OCCN1CCOCC1 (centres unmarked) [OZ439], the inhibition at 3 µM [4] is reported as 28% and the “% inhibition at 3 μM” value [5] is reported as 52%.
